In patent publication US9913809B1, “Anti-cancer activity of (E)-1-(3′,4′-dimethoxyphenyl) butadiene” (SAMI LABS LIMITED, priority 2016, dated 2018):
Converted amounts (≈) assume the structure as drawn.

Tests used:
[1] = tested on: PANC-1 cancer cell line (pancreatic carcinoma cells); assay: MTT cytotoxicity assay, PANC-1; assay type: cell-based; conditions: Homo sapiens, PANC-1, pancreatic carcinoma
Description: (§1) Human pancreatic PANC-1 cancer cell line (pancreatic carcinoma cells), human prostate DU145 cancer cell line (prostate carcinoma), human ovarian cancer SKOV3 (ovarian carcinoma) cell line, colon Caco-2 cancer cell line (Colon Carcinoma), lung A549 cancer cell line (Lung carcinoma), lymphoblastoma K562 cancer cell line, melanoma B16F1 cancer cell line and colorectal HCT cancer cell line (Colorectal carcinoma), were grown and cultured using standard protocols known in the art. The cancer cell lines were treated with DMPBD in varying concentrations for measuring cytotoxicity. The estimation of the viability assay of the cells was done by the MTT (3-(4,5-dimethylthiazol-2-yl)-2,5-diphenyltetrazolium bromide) colorimetric assay. The MTT Assay measures the cell proliferation rate and conversely, when metabolic events lead to apoptosis or necrosis, the reduction in cell viability. The data is analyzed by plotting cell number versus absorbance allowing the quantification of changes in cell proliferation. The rate of tetrazolium reduction is proportional to the rate of cell proliferation. […]
(§2) The MTT Assay as performed was adapted from (1) Tim Mosmann. […] A tetrazolium-based colorimetric MTT assay to quantitate human monocyte mediated cytotoxicity against leukemic cells from cell lines and patients with acute myeloid leukemia. […]

[2] = tested on: DU145 cancer cell line (prostate carcinoma); assay: MTT cytotoxicity assay, DU145; assay type: cell-based; conditions: Homo sapiens, DU 145, prostate carcinoma
Description: as §1, §2

[3] = tested on: SKOV3 (ovarian carcinoma) cell line; assay: MTT cytotoxicity assay, SKOV3; assay type: cell-based; conditions: Homo sapiens, SK-OV-3
Description: as §1, §2

[4] = tested on: Caco-2 cancer cell line (Colon Carcinoma); assay: MTT cytotoxicity assay, Caco-2; assay type: cell-based; conditions: Homo sapiens, Caco-2, colon carcinoma
Description: as §1, §2

[5] = tested on: A549 cancer cell line (Lung carcinoma); assay: MTT cytotoxicity assay, A549; assay type: cell-based; conditions: Homo sapiens
Description: as §1, §2

[6] = tested on: lymphoblastoma K562 cancer cell line; assay: MTT cytotoxicity assay, K562; assay type: cell-based; conditions: Homo sapiens
Description: as §1, §2

[7] = tested on: melanoma B16F1 cancer cell line; assay: MTT cytotoxicity assay, B16F1; assay type: cell-based, human; conditions: Mus musculus, B16-F1
Description: as §1, §2

[8] = tested on: HCT cancer cell line (Colorectal carcinoma); assay: MTT cytotoxicity assay, HCT; assay type: cell-based; conditions: Homo sapiens
Description: as §1, §2

P-selectin (CD 62P) [9] = assay: Flow cytometry, P-selectin expression in LNCap prostate carcinoma cells; assay type: cell-based, human; conditions: DMPBD 70 μg/ml, TNF-alpha and IL-1beta 10 ng/ml, 72 hours
L-selectin (CD 62L) [10] = assay: Flow cytometry, L-selectin expression in LNCap prostate carcinoma cells; assay type: cell-based, human; conditions: DMPBD 20 μg/ml, TNF-alpha and IL-1beta 10 ng/ml, 72 hours
P-selectin (CD 62P) [11] = assay: Flow cytometry, P-selectin expression in K562 lymphoblastoma cells; assay type: cell-based, human; conditions: TNF-alpha and IL-1beta 10 ng/ml, 72 hours
L-selectin (CD 62L) [12] = assay: Flow cytometry, L-selectin expression in K562 lymphoblastoma cells; assay type: cell-based, human; conditions: DMPBD 20 μg/ml, TNF-alpha and IL-1beta 10 ng/ml, 72 hours
P-selectin (CD 62P) [13] = assay: Flow cytometry, P-selectin expression in HCT colorectal carcinoma cells; assay type: cell-based, human; conditions: TNF-alpha and IL-1beta 10 ng/ml, 72 hours
L-selectin (CD 62L) [14] = assay: Flow cytometry, L-selectin expression in HCT colorectal carcinoma cells; assay type: cell-based, human; conditions: TNF-alpha and IL-1beta 10 ng/ml, 72 hours
P-selectin (CD 62P) [15] = assay: Flow cytometry, P-selectin expression in pancreatic carcinoma cells; assay type: cell-based, human; conditions: flow cytometric studies
E-selectin (CD 62E) = assay: Flow cytometry, E-selectin expression in pancreatic carcinoma cells; assay type: cell-based, human; conditions: flow cytometric studies
L-selectin (CD 62L) [16] = assay: Flow cytometry, L-selectin expression in pancreatic carcinoma cells; assay type: cell-based, human; conditions: flow cytometric studies

C=C/C=C/c1ccc(OC)c(OC)c1 [DMPBD, (E)-1-(3′, 4′-Dimethoxyphenyl) butadiene]
IC50 [1]: 4.2 µg/mL (≈ 22.1 µM)
IC50 [2]: 8.6 µg/mL (≈ 45.2 µM)
IC50 [3]: 13.5 µg/mL (≈ 71 µM)
IC50 [4]: 39.3 µg/mL (≈ 207 µM)
IC50 [5]: 30.2 µg/mL (≈ 159 µM)
IC50 [6]: 22.5 µg/mL (≈ 118 µM)
IC50 [7]: 26.4 µg/mL (≈ 139 µM)
IC50 [8]: 25.5 µg/mL (≈ 134 µM)
% Reduction of P-selectin expression (P-selectin (CD 62P) [9]): 11.1%
% Reduction of L-selectin expression (L-selectin (CD 62L) [10]): 7.3%
% Reduction of P-selectin expression (P-selectin (CD 62P) [11]; DMPBD 10 μg/ml): 11.6%
% Reduction of P-selectin expression (P-selectin (CD 62P) [11]; DMPBD 20 μg/ml): 35.4%
% Reduction of L-selectin expression (L-selectin (CD 62L) [12]): 30.3%
% Reduction of P-selectin expression (P-selectin (CD 62P) [13]; DMPBD 10 μg/ml): 11.8%
% Reduction of P-selectin expression (P-selectin (CD 62P) [13]; DMPBD 20 μg/ml): 27.8%
% Reduction of L-selectin expression (L-selectin (CD 62L) [14]; DMPBD 10 μg/ml): 11.3%
% Reduction of L-selectin expression (L-selectin (CD 62L) [14]; DMPBD 20 μg/ml): 21.1%
expression of P-selectin (P-selectin (CD 62P) [15]): significant fold decrease
expression of E-selectin (E-selectin (CD 62E)): significant fold decrease
expression of L-selectin (L-selectin (CD 62L) [16]): significant fold decrease
